Results as given in article PMC8485799, “Synthesis and Antiprotozoal Profile of 3,4,5‐Trisubstituted Isoxazoles” (ChemistryOpen, 2021).
Like-named read-outs stand apart in the source and are kept apart here.

Columns and labels:
[1] = test system: promastigote forms of Leishmania amazonensis (WHOM/BR/75/JOSEFA strain); test: Antiproliferative assay (XTT), promastigote forms, 72 h; assay type: cell-based; settings: for IC50: Leishmania amazonensis, 72 h, read-out: L. amazonensis IC50; for SIL-F, selectivity index (Fibroblast CC50/L. amazonensis IC50): fibroblast vs promastigote; for SIL-M, selectivity index (Macrophages CC50/L. amazonensis IC50): macrophages vs promastigote
Method: (§1) The antiproliferative activity was determined in promastigote forms of Leishmania amazonensis (WHOM/BR/75/JOSEFA strain) and epimastigote forms of Trypanosoma cruzi (Y strain). The promastigote forms of L. amazonensis were cultured in Warren medium (brain heart infusion, hemin, and folic acid; pH 7.4) supplemented with 10 % fetal bovine serum (FBS) at 25 °C. The epimastigote forms of T.cruzi were cultured in LIT medium (liver infusion tryptose; hemin, and folic acid; pH 7.4) supplemented with 10 % FBS at 28 °C. Cytotoxicity in mammalian cells was determined in fibroblast line (L929) and macrophages (J774 A1). Fibroblasts were cultured in DMEM medium (pH 7.2) supplemented with 10 % FBS at 37 °C in a 5 % CO2 atmosphere. Macrophages were cultured in RPMI‐1640 (pH 7.2) medium supplemented with 10 % FBS at 37 °C in a 5 % CO2 atmosphere.
(§2) Stock solutions of the compounds were prepared in DMSO and then diluted in the respective medium.
(§3) Promastigote forms (1×10^6 parasites.mL^−1) were cultured in 96‐well plates in the presence and absence of different concentrations of compounds diluted in Warren medium supplemented with 10 % FBS and incubated for 72 h. The epimastigote forms (1×10^6 parasites.mL^−1) were cultured in 96‐well plates in the presence and absence of different concentrations of compounds diluted in LIT medium supplemented with 10 % FBS and incubated for 96 h. After treatment, the parasites were incubated with a solution of 2,3‐bis(2‐methoxy‐4‐nitro‐5‐sulfophenyl)‐2H‐tetrazolium‐5‐carboxanilide (XTT; 0.5 mg.mL^−1) and phenazine methanesulfonate activator (PMS; 0.06 mg.mL^−1) in PBS for 4 h. Then, the absorbance was read in a microplate reader (Bio Tek‐Power Wave XS) at 450 nm.[20] The percentage of viable parasites was calculated in relation to the control in order to determine the concentration that inhibits 50 % of the protozoa (IC50). The control groups of each experiment received the same experimental conditions as the treated groups (cell concentration used, temperature, and incubation time).

[2] = test system: epimastigote forms of Trypanosoma cruzi (Y strain); test: Antiproliferative assay (XTT), epimastigote forms, 96 h; assay type: cell-based; settings: for IC50: Trypanosoma cruzi, 96 h, read-out: T. cruzi IC50; for SIT-F, selectivity index (Fibroblast CC50/T. cruzi IC50): fibroblast vs epimastigote; for SIT-M, selectivity index (Macrophages CC50/T. cruzi IC50): macrophages vs epimastigote
Method: as §1, §2, §3

[3] = Cytotoxicity assay in mammalian cells (MTT), fibroblasts, 72 h; assay type: cell-based; settings: mouse, pH 7.2, 50 % inhibition of fibroblast growth, 72 h, MTT
Method: as §1, §2
(§4) Fibroblast cell (2.5×10^5 cells.mL^−1) suspensions were prepared in DMEM medium supplemented with 10 % FBS and added to 96‐well plates. Then, the plates were incubated at 37 °C in a CO2 atmosphere for 24 h to obtain confluent cell growth. After incubation, cells were treated with different concentrations of compounds diluted in DMEM for 72 h or left untreated. Macrophage (5×10^5 cells.mL^−1) suspensions were prepared in RPMI‐1640 medium supplemented with 10 % FBS and added to 96‐well plates. Then, the plates were incubated at 37 °C in a CO2 atmosphere for 24 h to obtain confluent cell growth. After incubation, cells were treated with different concentrations of compounds diluted in RPMI‐1640 for 48 h or left untreated. After treatment, the medium was removed, and cells were incubated with MTT (2 mg.mL^−1) for 4 h. Then, DMSO was added for solubilization of the formazan and analyzed with a reading microplate reader (BIO‐TEK PowerWave XS spectrophotometer) at […].[20] The percentage of viable cells was calculated in relation to the untreated control group to determine the cytotoxic concentration in 50 % of the cells (CC50). The control groups of each experiment received the same experimental conditions as the treated groups (cell concentration used, temperature, CO2, and incubation time).

[4] = Cytotoxicity assay in mammalian cells (MTT), macrophages, 48 h; assay type: cell-based; settings: mouse, pH 7.2, 50 % inhibition of macrophages growth, 48 h, MTT
Method: as §1, §2, §4

SMILES | IC50 ([1]; promastigote form, XTT) [µM] | SIL-F, selectivity index (Fibroblast CC50/L. amazonensis IC50) [1] | SIL-M, selectivity index (Macrophages CC50/L. amazonensis IC50) [1] | IC50 ([2]; epimastigote form, XTT) [µM] | SIT-F, selectivity index (Fibroblast CC50/T. cruzi IC50) [2] | SIT-M, selectivity index (Macrophages CC50/T. cruzi IC50) [2] | CC50 at 72 h ([3]; L929 fibroblast cells) [µM] | CC50 at 48 h ([4]; J774 A1 macrophages) [µM] | melting point [°C] | IC50 [1] [µM] | IC50 [2] [µM] | CC50 at 72 h [3] [µM] | CC50 at 48 h [4] [µM] | Selectivity index (SI), overall ([1]; span over both cell lines (fibroblast, macrophages) and both parasites (L. amazonensis, T. cruzi))
CCOC(=O)c1noc(-c2ccc(Cl)cc2)c1CNc1ccccc1 [2 da] | 29.9 ± 2.1 | 5.28 | 5.17 | 32.9 ± 3.7 | 4.80 | 4.70 | 158 ± 7.7 | 155 ± 3 | 172.9 to 173.4 | – | – | – | – | –
CCOC(=O)c1noc(-c2ccc(Cl)cc2)c1CNc1ccc(Cl)cc1 [2 db] | 21.6 ± 2.2 | 4.61 | 4.07 | 22.4 ± 2.6 | 4.44 | 3.92 | 99.5 ± 5.7 | 87.9 ± 4.6 | 173.3 to 175.4 | – | – | – | – | –
NNC(=O)c1noc(-c2ccc([N+](=O)[O-])cc2)c1CNc1ccccc1 [3 aa, 3‐Carbohydrazide‐4‐(phenyl)aminomethyl‐5‐(4‐nitrophenyl)isoxazole] | 42.1 ± 1.3 | 4.71 | 3.39 | 39.8 ± 3.6 | 4.98 | 3.59 | 198 ± 9.5 | 142.8 ± 0.8 | 189 to 190.4 | – | – | – | – | –
NNC(=O)c1noc(-c2ccc([N+](=O)[O-])cc2)c1CNc1ccc(Cl)cc1 [3 ab] | 15.7 ± 0.4 | 6.26 | 5.84 | 12.1 ± 0.9 | 8.12 | 7.58 | 98.3 ± 4.1 | 91.7 ± 3.8 | 174.1 to 176.8 | – | – | – | – | –
COc1ccc(NCc2c(C(=O)NN)noc2-c2ccc([N+](=O)[O-])cc2)cc1 [3 ac] | 76.7 ± 0.6 | 6.51 | 5.25 | 82.9 ± 3.4 | 6.02 | 4.86 | 499 ± 2.7 | 403 ± 11.5 | 144.2 to 146.8 | – | – | – | – | –
NNC(=O)c1noc(-c2ccccc2)c1CNc1ccccc1 [3 ba] | 34.9 ± 2.9 | 5.41 | 3.16 | 39.5 ± 5.6 | 4.78 | 2.79 | 189 ± 9 | 110 ± 5.6 | 151.3 to 152.4 | – | – | – | – | –
NNC(=O)c1noc(-c2ccccc2)c1CNc1ccc(Cl)cc1 [3 bb] | – | 8.07 | 6.48 | – | 7.38 | 5.93 | – | – | 190.6 to 191.6 | 35.7 ± 6 | 39 ± 7.1 | 288 ± 9.9 | 231 ± 8.1 | –
COc1ccc(NCc2c(C(=O)NN)noc2-c2ccccc2)cc1 [3 bc] | 12.4 ± 1.7 | 15.35 | 14.97 | 15 ± 0.8 | 12.69 | 12.38 | 190 ± 3.7 | 186 ± 6.1 | 132.2 to 135.4 | – | – | – | – | greater than 14
NNC(=O)c1noc(-c2ccc(F)cc2)c1CNc1ccccc1 [3 ca] | 20.3 ± 0.9 | – | 8.57 | 22.8 ± 1.7 | 10.25 | 7.63 | 198 ± 5 | 174 ± 8.1 | 174 to 175 | – | – | – | – | –
O=C(N/N=C/c1ccc(-c2cccs2)s1)c1noc(-c2ccccc2)c1CNc1ccccc1 [6 ba] | 46.9 ± 3 | 4.45 | 4.19 | 52.4 ± 2.9 | 3.98 | 3.75 | 209 ± 2.9 | 196 ± 4.4 | – | – | – | – | – | –
O=C(N/N=C/c1ccc(-c2cccs2)s1)c1noc(-c2ccc(F)cc2)c1CNc1ccc(Cl)cc1 [6 cb] | 19.7 ± 2.6 | 10.9 | 10.6 | 20.4 ± 3.6 | 10.5 | 10.3 | 215 ± 8.9 | 210 ± 3.1 | – | – | – | – | – | –
COc1ccc(NCc2c(C(=O)N/N=C/c3ccc(-c4cccs4)s3)noc2-c2ccc(F)cc2)cc1 [6 cc] | 20.6 ± 1.7 | 15.32 | 12.97 | 22.8 ± 3 | 13.84 | 11.71 | 316 ± 10.8 | 267 ± 7.9 | – | – | – | – | – | –
O=C(N/N=C/c1ccc(-c2cccs2)s1)c1noc(-c2ccc(Cl)cc2)c1CNc1ccc(Cl)cc1 [6 db] | 38.5 ± 4.6 | 8.04 | 7.81 | 33.6 ± 4.8 | 9.21 | 8.94 | 310 ± 3.1 | 300 ± 4.2 | – | – | – | – | – | –
